Reference: ChEMBL document CHEMBL1123664, “Preparation and antitumor activity of new mitomycin A analogues” (J Med Chem, 1987)
Values joined by “and” are separate entries in the source; they are usually repeats but may differ in a detail not shown here. Equal values may be shown once.

Experiments:
[1] = Partition coefficient (logP); format: physicochemical; conditions: octanol/water
B16 [2] = experiment: Antitumor activity against subcutaneously B16 melanoma cells in mice at an optimal dose of 0.4 mg/kg expressed as […] effective dose; format: functional; conditions: Mus musculus, B16, sc, route subcutaneous, read-out: MED
P388 [3] = experiment: Antitumor activity against intraperitoneally implanted P388 leukemia cells in mice at an optimal dose of 1.6 mg/kg expressed as […] effective dose; format: functional; conditions: Mus musculus, P388, ip, route intraperitoneal, read-out: MED
P388 [4] = experiment: Antitumor activity against intraperitoneally implanted P388 leukemia cells in mice expressed as ratio of median survival time for treated group to that of control group at an optimal dose of 1.6 mg/kg; format: functional, Mus musculus; conditions: route intraperitoneal
B16 [5] = experiment: Antitumor activity against subcutaneously B16 melanoma cells in mice expressed as ratio of median survival time for treated group to that of control group at an optimal dose of 0.2 mg/kg; format: functional, Mus musculus; conditions: route subcutaneous
B16 [6] = experiment: Antitumor activity against subcutaneously B16 melanoma cells in mice expressed as ratio of median survival time for treated group to that of control group at an optimal dose of 0.4 mg/kg; format: functional, Mus musculus; conditions: route subcutaneous
B16 [7] = experiment: Antitumor activity against subcutaneously B16 melanoma cells in mice at an optimal dose of 0.2 mg/kg expressed as […] effective dose; format: functional; conditions: Mus musculus, B16, sc, route subcutaneous, read-out: MED
B16 [8] = experiment: Antitumor activity against subcutaneously B16 melanoma cells in mice at an optimal dose of 0.8 mg/kg expressed as […] effective dose; format: functional, Mus musculus; conditions: route subcutaneous; for minimal effective dose at 0.8 mg/kg: Mus musculus, B16, sc, read-out: MED
B16 [9] = experiment: Antitumor activity against subcutaneously B16 melanoma cells in mice expressed as ratio of median survival time for treated group to that of control group at an optimal dose of 1-3 mg/kg; format: functional, Mus musculus
B16 [10] = experiment: (§1) Antitumor activity against subcutaneously B16 melanoma cells in mice expressed as ratio of median survival time for treated group to that of control group at an optimal dose of 0.6 mg/kg; format: functional, Mus musculus; conditions: route subcutaneous
P388 [11] = experiment: Antitumor activity against intraperitoneally implanted P388 leukemia cells in mice at an optimal dose of 0.8 mg/kg gexpressed as […] effective dose; format: functional; conditions: Mus musculus, P388, ip, route intraperitoneal, read-out: MED
B16 [12] = experiment: Antitumor activity against subcutaneously B16 melanoma cells in mice expressed as ratio of median survival time for treated group to that of control group at an optimal dose of 0.8 mg/kg; format: functional, Mus musculus; conditions: route subcutaneous
P388 [13] = experiment: Antitumor activity against intraperitoneally implanted P388 leukemia cells in mice expressed as ratio of median survival time for treated group to that of control group at an optimal dose of 0.8 mg/kg; format: functional, Mus musculus; conditions: route intraperitoneal
B16 [14] = experiment: as §1; format: functional, Mus musculus; conditions: route subcutaneous; remark: listed apart in the source
B16 [15] = experiment: Antitumor activity against subcutaneously B16 melanoma cells in mice at an optimal dose of 0.6 mg/kg expressed as […] effective dose; format: functional, Mus musculus; conditions: route subcutaneous
P388 [16] = experiment: Antitumor activity against intraperitoneally implanted P388 leukemia cells in mice expressed as […] effective dose at an optimal dose of 3.2 mg/kg; format: functional; conditions: Mus musculus, P388, ip, route intraperitoneal, read-out: MED
P388 [17] = experiment: Antitumor activity against intraperitoneally implanted P388 leukemia cells in mice expressed as ratio of median survival time for treated group to that of control group at an optimal dose of 3.2 mg/kg; format: functional, Mus musculus; conditions: route intraperitoneal
P388 [18] = experiment: Antitumor activity against intraperitoneally implanted P388 leukemia cells in mice at an optimal dose of 0.8 mg/kg expressed as […] effective dose; format: functional; conditions: Mus musculus, P388, ip, route intraperitoneal, read-out: MED
P388 [19] = experiment: Antitumor activity against intraperitoneally implanted P388 leukemia cells in mice at an optimal dose of 3.2 mg/kg expressed as […] effective dose; format: functional; conditions: Mus musculus, P388, ip, route intraperitoneal, read-out: MED
P388 [20] = experiment: Antitumor activity against intraperitoneally implanted P388 leukemia cells in mice expressed as ratio of median survival time for treated group to that of control group at an optimal dose 0.8 mg/kg; format: functional, Mus musculus; conditions: route intraperitoneal
P388 [21] = experiment: Antitumor activity against intraperitoneally implanted P388 leukemia cells in mice at an optimal dose 0.8 mg/kg expressed as […] effective dose; format: functional; conditions: Mus musculus, P388, ip, route intraperitoneal, read-out: MED
B16 [22] = experiment: Antitumor activity against subcutaneously B16 melanoma cells in mice expressed as ratio of median survival time for treated group to that of control group at an optimal dose of 0.3 mg/kg; format: functional, Mus musculus; conditions: route subcutaneous
B16 [23] = experiment: Antitumor activity against subcutaneously B16 melanoma cells in mice at an optimal dose of 0.3 mg/kg expressed as […] effective dose; format: functional; conditions: Mus musculus, B16, sc, route subcutaneous, read-out: MED

CCOC1=C(C)C(=O)C2=C(C1=O)C(COC(N)=O)[C@@]1(OC)C3NC3CN21 (some centres not stated)
logP [1]: 0.76 | minimal effective dose at 0.4 mg/kg (B16 [2]): < 0.4 mg/kg | minimal effective dose at 1.6 mg/kg (P388 [3]): < 0.05 mg/kg | T/C (P388 [4]): 188% | T/C (B16 [5]): 215% | T/C (B16 [6]): 212% | minimal effective dose at 0.2 mg/kg (B16 [7]): 0.1 mg/kg

CO[C@@]12C(COC(N)=O)C3=C(C(=O)C(C)=C(OCC4COC(C)(C)O4)C3=O)N1CC1NC12 (some centres not stated)
logP [1]: 0.82 | minimal effective dose at 0.8 mg/kg (B16 [8]): 0.4 mg/kg | T/C (B16 [9]): 133% and 147% and 170% | T/C (B16 [10]): 221% | minimal effective dose at 0.8 mg/kg (P388 [11]): < 0.05 mg/kg | T/C (B16 [12]): 198% | T/C (P388 [13]): 178% | T/C (B16 [14]): 240% | MED (B16 [15]): <0.3 mg/kg and 0.1 mg/kg

CO[C@@]12C(COC(N)=O)C3=C(C(=O)C(C)=C(OCc4ccccc4)C3=O)N1CC1NC12 (some centres not stated)
logP [1]: 2.22 | minimal effective dose at 3.2 mg/kg (P388 [16]): < 0.2 mg/kg | T/C (P388 [17]): 167%

CO[C@@]12C(COC(N)=O)C3=C(C(=O)C(C)=C(OC(C)C)C3=O)N1CC1NC12 (some centres not stated)
logP [1]: 1.26 | T/C (P388 [17]): 174%

CO[C@@]12C(COC(N)=O)C3=C(C(=O)C(C)=C(OCCSCCO)C3=O)N1CC1NC12 (some centres not stated)
logP [1]: 1.07 | minimal effective dose at 0.8 mg/kg (P388 [18]): < 0.1 mg/kg | T/C (P388 [13]): 250%

CO[C@@]12C(COC(N)=O)C3=C(C(=O)C(C)=C(OCC4CCC4)C3=O)N1CC1NC12 (some centres not stated)
logP [1]: 2.26 | minimal effective dose at 1.6 mg/kg (P388 [3]): 0.4 mg/kg | T/C (P388 [4]): 144%

COCCOCCOC1=C(C)C(=O)C2=C(C1=O)C(COC(N)=O)[C@@]1(OC)C3NC3CN21 (some centres not stated)
logP [1]: 0.32 | minimal effective dose at 0.8 mg/kg (B16 [8]): 0.4 mg/kg | MED (B16 [8]): 0.4 mg/kg | T/C (B16 [12]; 0.8 mg/kg): >191% and >265% | minimal effective dose at 0.8 mg/kg (P388 [18]): < 0.1 mg/kg | T/C (P388 [13]): 225%

CO[C@@]12C(COC(N)=O)C3=C(C(=O)C(C)=C(OCCN4CCOCC4)C3=O)N1CC1NC12 (some centres not stated)
logP [1]: 0.49 | T/C (P388 [17]): 256% | minimal effective dose at 3.2 mg/kg (P388 [19]): < 0.05 mg/kg | T/C (B16 [6]): 113%

CO[C@@]12C(COC(N)=O)C3=C(C(=O)C(C)=C(OCC4CCCCO4)C3=O)N1CC1NC12 (some centres not stated)
logP [1]: 1.79 | T/C (P388 [20]): 161% | minimal effective dose at 0.8 mg/kg (P388 [21]): 0.1 mg/kg

CO[C@@]12C(COC(N)=O)C3=C(C(=O)C(C)=C(OCCCO)C3=O)N1CC1NC12 (some centres not stated)
logP [1]: 0.14 | minimal effective dose at 1.6 mg/kg (P388 [3]): 0.05 mg/kg | T/C (P388 [4]): 175%

COC1=C(C)C(=O)C2=C(C1=O)[C@@H](COC(N)=O)[C@@]1(OC)[C@H]3N[C@H]3CN21 [MITOMYCIN A]
logP [1]: 0.26 | T/C (B16 [22]): 177% | T/C (P388 [17]): 180% | minimal effective dose at 3.2 mg/kg (P388 [19]): 0.05 mg/kg | minimal effective dose at 0.3 mg/kg (B16 [23]): 0.05 mg/kg

CCOCCOCCOC1=C(C)C(=O)C2=C(C1=O)C(COC(N)=O)[C@@]1(OC)C3NC3CN21 (some centres not stated)
logP [1]: 0.82 | minimal effective dose at 0.4 mg/kg (B16 [2]): 0.2 mg/kg | minimal effective dose at 1.6 mg/kg (P388 [3]): < 0.1 mg/kg | T/C (P388 [4]): 167% | T/C (B16 [6]): 196%

C#CCOC1=C(C)C(=O)C2=C(C1=O)C(COC(N)=O)[C@@]1(OC)C3NC3CN21 (some centres not stated)
logP [1]: 0.74 | T/C (B16 [12]): 204% | minimal effective dose at 0.8 mg/kg (P388 [18]): < 0.05 mg/kg | T/C (P388 [13]): 150%
